Laboratory results taken from US20230042881A1, “MODULATORS OF INTEGRATED STRESS RESPONSE PATHWAY” (Praxis Biotech LLC, priority 2021, published 2023).
Like-named read-outs stand apart in the source and are kept apart here.

How the values were obtained:
[1] = tested on: ATF4; assay: ATF4 expression inhibition assay (ATF4 5′UTR luciferase reporter, thapsigargin-stressed); assay type: cell-based; conditions: Homo sapiens, HEK-293T, read-out: ATF4 inhibition
Protocol: The ATF4 reporter was prepared by fusing the human full length 5′UTR of ATF4 (NCBI Accession No. BC022088.2) upstream of the firefly luciferase coding sequence lacking the initiator methionine. The fused sequence was cloned into pLenti-EF1a-C-Myc-DDK-IRES-Puro cloning vector (Origen #PS100085) using standard methods.
HEK293T cells carrying the ATF4 luciferase reporter were plated on 96-well plates (Nunc) at 10,000 cells per well. Cells were treated two days after seeding with 100 nM thapsigargin (Tg) (Sigma-Aldrich #T9033) in the presence of different concentrations of selected compounds ranging from 0.1 nM to […]. Cells without treatment or cells treated with Tg alone were used as controls. Assay plates containing cells were incubated for 3 hours at 37° C.
Luciferase reactions were performed using Luciferase Assay System (Promega #E1501) as specified by the manufacturer. Luminescence was read with an integration time of 1 s and a gain of 110 using a Cytation-5 multi-mode microplate reader (BioTek).

[2] = tested on: Chinese hamster ovary (CHO) cells; assay: Protein synthesis assay (puromycin incorporation, Western blot); assay type: cell-based; conditions: Cricetulus griseus, read-out: % Protein synthesis relative to untreated (1 μM test compound)
Protocol: Chinese hamster ovary (CHO) cells were maintained at 37° C. and 5% CO2 in Dulbecco's Modified Eagle's Media (DMEM) supplemented with 10% fetal bovine serum, 2 mM L-glutamine, 100 U/ml penicillin, and 100 μg/ml streptomycin. After reaching 80% of confluence, cells were detached and seeded on 6 well plates in complete media, allowed to recover overnight and treated for 2 hours with 1 μM of the test compound (to assess protein synthesis levels in unstressed condition), or for 2 hours with 300 nM Tg in the presence of 1 μM of the test compound (to assess the recovery of protein synthesis in a stressed condition). Cells with Tg alone were used as controls.
After the 2 hours treatments, media were replaced by adding 10 μg/ml puromycin (Sigma Aldrich #P8833) in complete media for 30 min. Media were removed and cells were lysed with SDS-PAGE lysis buffer. Lysates were transferred to 1.5 ml tubes and sonicated for 3 min and total protein amount were quantified using BCA Protein Assay Kit (Pierce). Equal amount of protein (30 μg) was loaded on SDS-PAGE gels.
A HRP-conjugated secondary antibody (Rockland) was employed to detect immune-reactive bands using enhanced chemiluminescence (ECL Western Blotting Substrate, Pierce). Quantification of protein bands was done by densitometry using ImageJ software.
The percentage levels were normalized to the media alone condition, which correspond to 100% protein synthesis. […]

[3] = HEK293T cells carrying ATF4 luciferase reporter, 100 nM thapsigargin (Tg), 3 hours at 37° C.
[4] = unstressed CHO cells (without Tg), 2 hours, 1 μM test compound, media alone = 100%

SMILES	IC50 ([1]; 3 h) [nM]	activity at 1 µM ([2]; CHO, 2 h) [%]	IC50 [1, 3] [nM]	activity at 1 µM [2, 4] [%]
O=C(COc1ccc(Cl)cc1)N[C@H]1CC[C@H](C(=O)Nc2ccc3cc(Cl)ccc3n2)CC1 [Compound 1, trans-4-(2-(4-chlorophenoxy)acetamido)-N-(6-chloroquinolin-2-yl)cyclohexane-1-carboxamide]	< 10	91.8		
O=C(N[C@H]1CC[C@H](C(=O)Nc2ccc3cc(Cl)ccc3n2)CC1)c1ccc2cc(Cl)ccc2n1 [Compound 2, trans-6-chloro-N-(4-((6-chloroquinolin-2-yl)carbamoyl)cyclohexyl)quinoline-2-carboxamide]			< 10	163
O=C(COc1ccc(Cl)c(F)c1)N[C@H]1CC[C@H](C(=O)Nc2ccc3cc(Cl)ccc3n2)CC1 [Compound 3, trans-4-(2-(4-chloro-3-fluorophenoxy)acetamido)-N-(6-chloroquinolin-2-yl)cyclohexane-1-carboxamide]			< 10	188
O=C(N[C@H]1CC[C@H](C(=O)Nc2ccc3cc(Cl)ccc3n2)CC1)c1cc2cc(Cl)ccc2o1 [Compound 4, trans-5-chloro-N-(4-((6-chloroquinolin-2-yl)carbamoyl)cyclohexyl)benzofuran-2-carboxamide]			< 10	204
O=C(N[C@H]1CC[C@H](C(=O)Nc2ccc3cc(Cl)ccc3n2)CC1)C1CNc2cc(Cl)ccc2O1 (stereo partly drawn) [Compound 5, trans-6-chloro-N-(4-((6-chloroquinolin-2-yl)carbamoyl)cyclohexyl)-3,4-dihydro-2H-benzo[b][1,4]oxazine-2-carboxamide]			< 10	195
O=C(N[C@H]1CC[C@H](C(=O)Nc2ccc3cc(Cl)ccc3n2)CC1)[C@H]1CNc2cc(Cl)ccc2O1 [Compound 6, trans-(R)-6-chloro-N-(4-((6-chloroquinolin-2-yl)carbamoyl)cyclohexyl)-3,4-dihydro-2H-benzo[b][1,4]oxazine-2-carboxamide]			< 10	100
O=C(N[C@H]1CC[C@H](C(=O)Nc2ccc3cc(Cl)ccc3n2)CC1)[C@@H]1CNc2cc(Cl)ccc2O1 [Compound 7, trans-(S)-6-chloro-N-(4-((6-chloroquinolin-2-yl)carbamoyl)cyclohexyl)-3,4-dihydro-2H-benzo[b][1,4]oxazine-2-carboxamide]			< 10	115
O=C(Nc1ccc2cc(Cl)ccc2n1)C1CCN(C[C@@H](O)COc2ccc(Cl)c(F)c2)CC1 [Compound 8, (R)-1-(3-(4-chloro-3-fluorophenoxy)-2-hydroxypropyl)-N-(6-chloroquinolin-2-yl)piperidine-4-carboxamide]			10 to 100	156
O=C(Nc1ccc2cc(Cl)ccc2n1)C1CCN(C[C@H](O)COc2ccc(Cl)c(F)c2)CC1 [Compound 9, (S)-1-(3-(4-chloro-3-fluorophenoxy)-2-hydroxypropyl)-N-(6-chloroquinolin-2-yl)piperidine-4-carboxamide]			100 to 1000	156
O=C(Nc1ccc2cc(Cl)ccc2n1)C1CCN(CCCOc2ccc(Cl)c(F)c2)CC1 [Compound 10, 1-(3-(4-chloro-3-fluorophenoxy)propyl)-N-(6-chloroquinolin-2-yl)piperidine-4-carboxamide]			10 to 100	153
O=C(Nc1ccc2cc(Cl)ccc2n1)[C@H]1CC[C@H](NCCOc2ccc(Cl)c(F)c2)CC1 [Compound 11, trans-4-(2-(4-chloro-3-fluorophenoxy)ethylamino)-N-(6-chloroquinolin-2-yl)cyclohexane-1-carboxamide]			100 to 1000	150
O=C(NN1CCC(C(=O)Nc2ccc3cc(Cl)ccc3n2)CC1)c1cc2cc(Cl)ccc2o1 [Compound 12, 1-(5-chlorobenzofuran-2-carboxamido)-N-(6-chloroquinolin-2-yl)piperidine-4-carboxamide]			< 10	121
O=C(COc1ccc(Cl)c(F)c1)N[C@H]1CC[C@H](C(=O)Nc2nc3cc(Cl)ccc3o2)CC1 [Compound 13, trans-4-(2-(4-chloro-3-fluorophenoxy)acetamido)-N-(5-chlorobenzo[d]oxazol-2-yl)cyclohexane-1-carboxamide]	10 to 100	104		
O=C(C[C@H]1CC[C@H](NC(=O)COc2ccc(Cl)c(F)c2)CC1)Nc1ccc2cc(Cl)ccc2n1 [Compound 21, trans-2-(4-chloro-3-fluorophenoxy)-N-(4-(2-((6-chloroquinolin-2-yl)amino)-2-oxoethyl)cyclohexyl)acetamide]	100 to 1000			
O=C(NC[C@H]1CC[C@H](C(=O)Nc2ccc3cc(Cl)ccc3n2)CC1)c1cnc(C(F)F)cn1 [Compound 23, trans-N-((4-((6-chloroquinolin-2-yl)carbamoyl)cyclohexyl)methyl)-5-(difluoromethyl)pyrazine-2-carboxamide]			> 1000	
O=C(NC[C@H]1CC[C@H](C(=O)Nc2ccc3cc(Cl)ccc3n2)CC1)c1ccc(C(F)(F)F)nc1 [Compound 37, trans-N-((4-((6-chloroquinolin-2-yl)carbamoyl)cyclohexyl)methyl)-6-(trifluoromethyl)nicotinamide]			100 to 1000	
O=C(NC[C@H]1CC[C@H](C(=O)Nc2ccc3cc(Cl)ccc3n2)CC1)c1ccc(C(F)(F)F)cn1 [Compound 38, trans-N-((4-((6-chloroquinolin-2-yl)carbamoyl)cyclohexyl)methyl)-5-(trifluoromethyl)picolinamide]			100 to 1000	
O=C(NC[C@H]1CC[C@H](C(=O)NCc2cc3cc(Cl)ccc3o2)CC1)c1ccc(C(F)(F)F)nc1 [Compound 51, N-((trans-4-(((5-chlorobenzofuran-2-yl)methyl)carbamoyl)cyclohexyl)methyl)-6-(trifluoromethyl)nicotinamide]			100 to 1000	
O=C(NC[C@H]1CC[C@H](C(=O)NCc2cc3cc(Cl)ccc3o2)CC1)c1ccc(C(F)(F)F)cn1 [Compound 52, N-((trans-4-(((5-chlorobenzofuran-2-yl)methyl)carbamoyl)cyclohexyl)methyl)-5-(trifluoromethyl)picolinamide]			100 to 1000	
O=C(CO[C@H]1C[C@@H](OC(F)(F)F)C1)NN1CCC(C(=O)NCc2cc3cc(Cl)ccc3o2)CC1 [Compound 56, N-((5-chlorobenzofuran-2-yl)methyl)-1-(2-(cis-3-(trifluoromethoxy)cyclobutoxy)acetamido)piperidine-4-carboxamide]			100 to 1000	
O=C(CO[C@H]1C[C@@H](OC(F)(F)F)C1)N[C@H]1CC[C@H](C(=O)NCc2cc3cc(Cl)ccc3o2)CC1 [Compound 59, trans-N-((5-chlorobenzofuran-2-yl)methyl)-4-(2-(cis-3-(trifluoromethoxy)cyclobutoxy)acetamido)cyclohexane-1-carboxamide]			100 to 1000	
O=C(CO[C@H]1C[C@@H](OC(F)(F)F)C1)N[C@H]1CC[C@H](C(=O)NCC2CNc3cc(Cl)ccc3O2)CC1 (stereo partly drawn) [Compound 79, trans-N-((6-chloro-3,4-dihydro-2H-benzo[b][1,4]oxazin-2-yl)methyl)-4-(2-(cis-3-(trifluoromethoxy)cyclobutoxy)acetamido)cyclohexane-1-carboxamide]			100 to 1000	
O=C(CO[C@H]1C[C@@H](OC(F)(F)F)C1)NN1CCC(C(=O)NCC2CNc3cc(Cl)ccc3O2)CC1 (stereo partly drawn) [Compound 80, N-((6-chloro-3,4-dihydro-2H-benzo[b][1,4]oxazin-2-yl)methyl)-1-(2-(cis-3-(trifluoromethoxy)cyclobutoxy)acetamido)piperidine-4-carboxamide]			100 to 1000	
O=C(CO[C@H]1C[C@@H](OC(F)(F)F)C1)N[C@H]1CC[C@H](C(=O)Nc2nc3cc(Cl)ccc3o2)CC1 [Compound 101, trans-N-(5-chlorobenzo[d]oxazol-2-yl)-4-(2-(cis-3-(trifluoromethoxy)cyclobutoxy)acetamido)cyclohexanecarboxamide]	100 to 1000			
O=C(CO[C@H]1C[C@@H](OC(F)(F)F)C1)NN1CCC(C(=O)Nc2nc3cc(Cl)ccc3s2)CC1 [Compound 121, N-(5-chlorobenzo[d]thiazol-2-yl)-1-(2-(cis-3-(trifluoromethoxy)cyclobutoxy)acetamido)piperidine-4-carboxamide]			100 to 1000	
O=C(Nc1nc2cc(Cl)ccc2s1)[C@H]1CC[C@H](C(=O)N[C@H]2C[C@@H](OC(F)(F)F)C2)CC1 [Compound 123]			100 to 1000	
